Measurements published in ChEMBL document CHEMBL1201862, “PubChem BioAssay data set” (2004).
Active and inactive are the calls of the source.

How the values were obtained:
[1] = target: T1, Polyadenylate-binding protein 1 (Homo sapiens, UniProt P11940); assay: MLLE domain peptide-binding blockers, IC50 – biochemical, fluorescence polarization, FITC-PAM2 peptide, dose response (AID 602259); format: functional; conditions: read-out: IC50_Mean
[2] = target: T1, Polyadenylate-binding protein 1; assay: MLLE binding blockers, Cy5 peptide tracer – biochemical, fluorescence polarization, Cy5-PAM2 peptide, secondary, miRNA deadenylation inhibitor project, dose response (AID 602260); format: functional; conditions: read-out: IC50_Mean
cells [3] = assay: cells
[4] = viability of uninfected HEp-2 cells – cell-based, HTS, cytotoxicity control for RSV inhibitor project, dose response (AID 2410); format: functional; conditions: human respiratory syncytial virus
[5] = microbe, parasite or virus in culture; format: functional; conditions: Mycobacterium tuberculosis
H4 = assay: Luminescence Cell-Based Dose Response HTS to Identify Activators of 5'UTR Stem-Loop Driven Prion Protein mRNA Translation in H4 Neuroglioblastoma Cells. [Related pubchem assays: 1829 (Project Summary), 1814 (Primary HTS)]; format: functional; conditions: Homo sapiens
[6] = Luminescence Cell-Based Dose Response to Identify Activators of 5'UTR Stem-Loop Driven Prion Protein mRNA Translation in H4-C Neuroglioblastoma Cells. [Related pubchem assays: 1829 (Project Summary), 1814 (Primary HTS)]; format: functional
[7] = Luminescence Cell-Based Dose Confirmation to Identify Activators of 5'UTR Stem-Loop Driven Alpha-Synuclein mRNA Translation in H4 Neuroglioblastoma Cells. [Related pubchem assays: 1829 (Project Summary), 1814 (Primary HTS)]; format: functional
[8] = Luminescence Cell-Based Dose Confirmation HTS to Identify Activators of 5'UTR Stem-Loop Driven Alpha-Synuclein mRNA Translation in H4 Neuroglioblastoma Cells. [Related pubchem assays: 1829 (Project Summary), 1814 (Primary HTS)]; format: functional
cells [9] = assay: cells; remark: listed apart in the source
[10] = HGIII-sPLA2 enzyme inhibition potency – biochemical, QFRET, IC50, dose response (AID 743457);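 further: green fluorescence rise as the enzyme cleaves BODIPY PC-A2 in liposomes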
[11] = Luminescence Cell-Based Dose Response HTS to Identify Activators of Luciferase Translation or Activity in H4 […] Cells. [Related pubchem assays: 1829 (Project Summary), 1814 (Primary HTS)]; format: functional
[12] = target: T2, Oxysterols receptor LXR-beta (Homo sapiens, UniProt P55055); format: functional, cell-based;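 further: Cell-based luminescence dose-response assay of agonist activity at LXR, run as a confirmatory counterscreen to a daf-12 agonist screen; HEK293 cells with Gal4-LXR fusion and GAL4-driven luciferase reporter; agonist potency from rising luciferase signal of a Gal4-LXR reporter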
T2 sequence (P55055 whole entry): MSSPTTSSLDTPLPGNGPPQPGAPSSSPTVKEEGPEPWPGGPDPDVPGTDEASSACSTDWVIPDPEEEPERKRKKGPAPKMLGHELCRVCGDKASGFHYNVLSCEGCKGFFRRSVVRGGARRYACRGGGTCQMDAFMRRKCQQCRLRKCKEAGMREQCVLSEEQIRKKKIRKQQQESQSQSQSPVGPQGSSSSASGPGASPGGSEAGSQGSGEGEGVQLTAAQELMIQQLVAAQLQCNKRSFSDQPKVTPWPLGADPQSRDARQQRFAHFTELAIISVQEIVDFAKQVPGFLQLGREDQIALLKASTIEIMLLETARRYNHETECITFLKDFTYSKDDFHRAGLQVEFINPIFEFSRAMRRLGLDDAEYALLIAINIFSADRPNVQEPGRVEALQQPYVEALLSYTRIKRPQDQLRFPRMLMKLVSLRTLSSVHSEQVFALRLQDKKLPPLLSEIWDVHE

[13] = Luminescence Cell-Based Dose Response to Identify Activators of Luciferase Translation or Activity in H4-C Neuroglioblastoma Cells. [Related pubchem assays: 1829 (Project Summary), 1814 (Primary HTS)]; format: functional
BJ [14] = assay: BJ-TERT fibroblast viability loss – cell-based, RAS-independent, luminescence, dose response (AID 1933); format: functional; conditions: Homo sapiens
INS1 = assay: INS-1E survival protection against cytokine death – cell-based, luminescence, retest, dose response (AID 449756); format: functional; conditions: Rattus norvegicus;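 further: cell death triggered by IL-1 beta plus TNF-alpha plus IFN-gamma mixture; protective hits raise ATP signal compared with cytokine alone wells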
BJ [15] = assay: BJ-TERT-LT-ST fibroblast viability loss – cell-based, RAS-independent, luminescence, dose response (AID 1935); format: functional; conditions: Homo sapiens;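 further: BJ fibroblasts immortalized with TERT plus LT and ST oncogenes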
Oxytocin receptor = Oxytocin receptor (Homo sapiens, UniProt P30559); assay: Fluorescence-based cell-based high throughput dose response assay for agonists of the Oxytocin Receptor (OXTR). [Related pubchem assays: 2435 (Primary screen (OXTR agonists in singlicate)), 434991 (Counterscreen (V1R agonists in triplicate)), 2482 (Summary (OXTR agonists)), 434963 (Confirmation screen (OXTR agonists in triplicate))]; format: functional
[16] = DRD fibroblast viability loss – cell-based, non-viral oncogenic, luminescence, dose response (AID 1934); format: functional; conditions: Homo sapiens
BJ [17] = assay: cells; format: functional, cell-based; conditions: Homo sapiens
Vasopressin V1a receptor = Vasopressin V1a receptor (Homo sapiens, UniProt P37288); assay: Counterscreen for Oxytocin Receptor (OXTR) agonists: Fluorescence-based cell-based high throughput dose response assay to identify agonists of the vasopressin 1 receptor (V1R). [Related pubchem assays: 2435 (Primary screen (OXTR agonists in singlicate)), 434991 (Counterscreen (V1R agonists in triplicate)), 2482 (Summary (OXTR agonists)) …; format: functional
Bcl-2-related protein A1 [18] = target: T3, Bcl-2-related protein A1 (Mus musculus, UniProt Q07440); assay: small-molecule antagonists of Bfl-1/BH3 interaction – biochemical, TR-FRET, mouse Bfl-1, confirmation (AID 621);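 further: TR-FRET binding of GST-Bfl-1 to FITC-labelled Bid peptide via terbium antibody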
T3 sequence (Q07440 whole entry): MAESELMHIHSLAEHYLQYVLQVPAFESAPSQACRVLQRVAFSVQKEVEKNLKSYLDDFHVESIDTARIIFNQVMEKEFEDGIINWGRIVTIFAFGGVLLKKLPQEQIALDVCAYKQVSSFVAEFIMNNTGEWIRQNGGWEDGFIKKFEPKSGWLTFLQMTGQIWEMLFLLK

Bcl-2-related protein A1 [19] = target: T3, Bcl-2-related protein A1; assay: Bfl-1 binding inhibitors, SAR follow-up, biochemical, fluorescence polarization (AID 1070)
[20] = target: Glyceraldehyde-3-phosphate dehydrogenase (Homo sapiens, UniProt P04406)
[21] = target: T4, Tyrosine-protein phosphatase non-receptor type 7 (Homo sapiens, UniProt P35236); assay: HePTP tyrosine phosphatase activity blockers – biochemical, absorbance, leukemia target, primary screen (AID 521); format: functional
T4 sequence (P35236 whole entry): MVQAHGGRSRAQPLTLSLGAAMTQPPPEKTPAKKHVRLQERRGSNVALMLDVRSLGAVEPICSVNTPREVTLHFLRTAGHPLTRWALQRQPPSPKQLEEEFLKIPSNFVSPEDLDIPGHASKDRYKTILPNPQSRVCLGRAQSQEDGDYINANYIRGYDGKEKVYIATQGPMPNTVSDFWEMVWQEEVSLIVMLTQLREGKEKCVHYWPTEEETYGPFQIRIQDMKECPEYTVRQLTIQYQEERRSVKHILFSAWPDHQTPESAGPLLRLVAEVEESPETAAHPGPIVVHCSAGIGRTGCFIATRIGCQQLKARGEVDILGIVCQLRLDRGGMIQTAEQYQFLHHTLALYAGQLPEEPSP

[22] = A Cell Based Secondary Assay To Explore Cytotoxicity of Compounds that Sensitize Mycobacterium Tuberculosis to Beta-Lactam Antibiotics.; format: functional

T1 sequence (P11940 whole entry, the tested form may be a part): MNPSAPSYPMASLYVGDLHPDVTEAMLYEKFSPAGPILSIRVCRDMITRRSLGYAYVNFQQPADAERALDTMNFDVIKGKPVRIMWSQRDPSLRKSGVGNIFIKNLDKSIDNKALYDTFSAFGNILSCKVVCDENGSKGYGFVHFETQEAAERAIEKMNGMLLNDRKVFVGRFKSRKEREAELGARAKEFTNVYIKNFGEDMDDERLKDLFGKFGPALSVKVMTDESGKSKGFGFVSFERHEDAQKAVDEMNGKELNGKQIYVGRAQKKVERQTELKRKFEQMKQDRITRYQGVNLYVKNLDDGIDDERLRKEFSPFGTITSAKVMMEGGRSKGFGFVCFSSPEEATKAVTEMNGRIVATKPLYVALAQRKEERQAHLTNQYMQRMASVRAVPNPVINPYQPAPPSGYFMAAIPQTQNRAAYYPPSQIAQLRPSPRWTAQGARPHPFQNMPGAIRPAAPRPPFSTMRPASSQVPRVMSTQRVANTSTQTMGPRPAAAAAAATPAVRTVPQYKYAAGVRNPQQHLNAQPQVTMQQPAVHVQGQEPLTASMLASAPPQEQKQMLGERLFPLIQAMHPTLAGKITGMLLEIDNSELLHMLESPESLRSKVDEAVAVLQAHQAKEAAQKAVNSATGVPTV
Chain of Oxytocin receptor (P30559 whole entry): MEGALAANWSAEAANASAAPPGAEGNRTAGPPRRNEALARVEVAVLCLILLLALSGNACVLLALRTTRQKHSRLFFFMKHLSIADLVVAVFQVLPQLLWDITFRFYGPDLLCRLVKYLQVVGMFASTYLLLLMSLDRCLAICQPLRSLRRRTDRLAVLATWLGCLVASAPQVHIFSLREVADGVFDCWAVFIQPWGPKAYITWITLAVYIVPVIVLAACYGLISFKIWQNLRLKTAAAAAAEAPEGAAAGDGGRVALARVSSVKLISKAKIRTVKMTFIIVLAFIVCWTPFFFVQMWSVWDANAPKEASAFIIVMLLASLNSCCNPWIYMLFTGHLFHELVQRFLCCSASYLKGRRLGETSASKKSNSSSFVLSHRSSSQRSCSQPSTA
Chain of Vasopressin V1a receptor (P37288 whole entry): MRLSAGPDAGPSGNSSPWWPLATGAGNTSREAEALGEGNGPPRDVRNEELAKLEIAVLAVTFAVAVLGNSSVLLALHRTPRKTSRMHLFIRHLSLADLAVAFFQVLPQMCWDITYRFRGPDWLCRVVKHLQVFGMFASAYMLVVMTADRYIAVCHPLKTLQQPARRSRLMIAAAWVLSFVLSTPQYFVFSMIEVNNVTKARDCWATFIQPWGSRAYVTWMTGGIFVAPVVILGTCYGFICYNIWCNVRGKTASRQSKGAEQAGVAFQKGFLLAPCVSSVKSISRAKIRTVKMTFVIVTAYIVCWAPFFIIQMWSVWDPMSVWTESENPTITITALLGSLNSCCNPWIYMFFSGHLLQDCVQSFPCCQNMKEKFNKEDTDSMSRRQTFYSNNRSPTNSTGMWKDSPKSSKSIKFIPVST
Chain of Glyceraldehyde-3-phosphate dehydrogenase (P04406 whole entry): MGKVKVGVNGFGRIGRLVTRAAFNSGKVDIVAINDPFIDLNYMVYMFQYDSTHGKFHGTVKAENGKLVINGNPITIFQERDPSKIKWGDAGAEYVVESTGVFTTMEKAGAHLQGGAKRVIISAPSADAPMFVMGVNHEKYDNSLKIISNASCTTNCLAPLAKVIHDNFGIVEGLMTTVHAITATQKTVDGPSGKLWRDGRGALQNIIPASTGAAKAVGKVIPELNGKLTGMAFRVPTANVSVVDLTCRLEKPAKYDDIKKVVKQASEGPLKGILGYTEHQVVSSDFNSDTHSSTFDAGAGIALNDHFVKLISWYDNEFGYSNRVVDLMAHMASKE

With Cc1ccc(C(=O)O)cc1NC(=S)NC(=O)c1ccc(-c2ccc(Cl)cc2)o1 the IC50 [1] was > 66 µM (inactive), the IC50 [2] was > 66 µM (inactive) and the IC50 (cells [3]) was 22.8 µM (active). For the same compound, the CC50 [4] was 23.2 µM (active).

For C=CCS/C(N)=N\N=C\c1c(O)ccc2ccccc12, the CC50 [5] was > 40 µM (active), the EC50 (H4) was < 0.1 µM (active) and the EC50 [6] was 0.313 µM (active). The EC50 [7] was 0.426 µM (active), the EC50 [8] was 9.96 µM (active) and the EC50 (cells [9]) was > 67.5 µM (inactive). The IC50 [10] was > 122 µM (inactive), the EC50 [11] was 0.902 µM (active) and the EC50 [12] was > 67.5 µM (inactive). The EC50 [13] was 0.324 µM (active).

In the case of COc1cccc(/C=N/Nc2snc(SC)c2C#N)c1O, the EC50 (BJ [14]) is reported as 27 µM (active), the AC50 (INS1) is reported as 3.96 µM (active) and the EC50 (BJ [15]) is reported as > 150 µM (not active). The EC50 (Oxytocin receptor) was > 29.9 µM (not active), the EC50 [16] was 48.3 µM (active) and the EC50 (BJ [17]) was 40.4 µM (active). The EC50 (Vasopressin V1a receptor) was > 29.9 µM (not active).

With Cc1ccc(Cl)cc1N1CCN(C2=C(Cl)C(=O)N(c3ccc(Cl)c(Cl)c3)C2=O)CC1 the IC50 (Bcl-2-related protein A1 [18]) was > 100 µM (not active), the IC50 (Bcl-2-related protein A1 [19]) was > 100 µM (not active) and the IC50 [20] was > 100 µM (not active).

For Cc1cc(COc2ccccc2OCCN2CCN(C)CC2)no1, the IC50 [21] was > 100 µM (not active).

For COc1ccc(OC)c(Nc2nc(-c3cccs3)cs2)c1, the CC50 [4] was 26.5 µM (active) and the CC50 [22] was > 40 µM (active).
